≈ marks a conversion by molar mass, not a printed value.
Key:
Format in all cases: functional
[1] = system: Enterococcus faecalis; experiment: Antibacterial activity against Enterococcus faecalis ATCC 6569 at 0 % serum
[2] = system: Staphylococcus aureus; experiment: Antibacterial activity against methicillin-resistant staphylococcus aureus ATCC 43300 at 0 % serum
[3] = system: Enterococcus faecium; experiment: Antibacterial activity against Enterococcus faecium ATCC 49452 at 0 % serum
[4] = system: Enterococcus faecalis; experiment: Antibacterial activity against Enterococcus faecalis ATCC 6569 at 10 % serum; conditions: ATCC 6569, Serum
[5] = system: Staphylococcus aureus; experiment: Antibacterial activity against methicillin-resistant staphylococcus aureus ATCC 43300 at 10 % serum
[6] = system: Staphylococcus aureus; experiment: Antibacterial activity against methicillin susceptible staphylococcus aureus ATCC 29213 at 0 % serum
[7] = species: Mus musculus; experiment: Protective dose against methicillin-resistant staphylococcus aureus ATCC 43300 was determined in mice; conditions: read-out: PD50
[8] = system: Staphylococcus aureus; experiment: Antibacterial activity against methicillin susceptible staphylococcus aureus ATCC 29213 at 10 % serum
[9] = system: Enterococcus faecium; experiment: Antibacterial activity against Enterococcus faecium ATCC 49452 at 10 % serum; conditions: ATCC 49452, Serum

Question: For CCCCCCCCCC(=O)N[C@@H](Cc1c[nH]c2ccccc12)C(=O)N[C@H](CC(N)=O)C(=O)N[C@@H](CC(=O)O)C(=O)N[C@@H]1C(=O)NCC(=O)N[C@@H](CCCNCc2ccc(-c3ccccc3)cc2)C(=O)N[C@@H](CC(=O)O)C(=O)N[C@H](C)C(=O)N[C@@H](CC(=O)O)C(=O)NCC(=O)N[C@H](CO)C(=O)N[C@@H]([C@H](C)CC(=O)O)C(=O)N[C@@H](CC(=O)c2ccccc2N)C(=O)O[C@@H]1C, which MIC [1] is on record?
Answer: Its MIC is 1.56 µg/mL (≈ 0.873 µM).

Question: What about the MIC [2] of the same compound?
Answer: Its MIC is 0.2 µg/mL (≈ 0.112 µM).

Question: And the MIC [3]?
Answer: The MIC was 1.56 µg/mL (≈ 0.873 µM).

Question: And the MIC [4]?
Answer: The MIC was 12.5 µg/mL (≈ 7 µM).

Question: And the MIC [5]?
Answer: Its MIC is 1.56 µg/mL (≈ 0.873 µM).

Question: What about the MIC [6] of the same compound?
Answer: Its MIC is 0.39 µg/mL (≈ 0.218 µM).

Question: What about the ED50 [7] of the same compound?
Answer: Its ED50 is 1.04 mg/kg.

Question: And the MIC [8]?
Answer: Its MIC is 3.13 µg/mL (≈ 1.75 µM).

Question: And the MIC [9]?
Answer: The MIC was 25 µg/mL (≈ 14 µM).

Question: With CCCCCCCCCC(=O)N[C@@H](Cc1c[nH]c2ccccc12)C(=O)N[C@H](CC(N)=O)C(=O)N[C@@H](CCO)C(=O)N[C@@H]1C(=O)NCC(=O)N[C@@H](CCCNCc2ccc(C#N)cc2)C(=O)N[C@@H](CC(=O)O)C(=O)N[C@H](C)C(=O)N[C@@H](CC(=O)O)C(=O)NCC(=O)N[C@H](CO)C(=O)N[C@@H]([C@H](C)CC(=O)O)C(=O)N[C@@H](CC(=O)c2ccccc2N)C(=O)O[C@@H]1C as the compound, how does the MIC [1] read?
Answer: The MIC was 6.25 µg/mL (≈ 3.63 µM).

Question: What about the MIC [2] of the same compound?
Answer: The MIC was 0.78 µg/mL (≈ 0.453 µM).

Question: And the MIC [3]?
Answer: Its MIC is 6.25 µg/mL (≈ 3.63 µM).

Question: And the MIC [4]?
Answer: The MIC was 6.25 µg/mL (≈ 3.63 µM).

Question: What about the MIC [5] of the same compound?
Answer: Its MIC is 0.78 µg/mL (≈ 0.453 µM).

Question: What about the MIC [6] of the same compound?
Answer: Its MIC is 0.78 µg/mL (≈ 0.453 µM).

Question: And the MIC [8]?
Answer: Its MIC is 0.78 µg/mL (≈ 0.453 µM).

Question: And the MIC [9]?
Answer: Its MIC is 12.5 µg/mL (≈ 7.26 µM).

Question: Which results are given for CCCCCCCCCC(=O)N[C@@H](Cc1c[nH]c2ccccc12)C(=O)N[C@H](CC(N)=O)C(=O)N[C@@H](CCO)C(=O)N[C@@H]1C(=O)NCC(=O)N[C@@H](CCCNCc2ccc(C(=O)N3CCN(c4ccc(F)cc4)CC3)cc2)C(=O)N[C@@H](CC(=O)O)C(=O)N[C@H](C)C(=O)N[C@@H](CC(=O)O)C(=O)NCC(=O)N[C@H](CO)C(=O)N[C@@H]([C@H](C)CC(=O)O)C(=O)N[C@@H](CC(=O)c2ccccc2N)C(=O)O[C@@H]1C?
Answer: MIC [1]: 3.13 µg/mL (≈ 1.64 µM); MIC [2]: 0.78 µg/mL (≈ 0.41 µM); MIC [3]: 6.25 µg/mL (≈ 3.28 µM); MIC [4]: 6.25 µg/mL (≈ 3.28 µM); MIC [5]: 0.78 µg/mL (≈ 0.41 µM); MIC [6]: 0.78 µg/mL (≈ 0.41 µM); MIC [8]: 1.56 µg/mL (≈ 0.82 µM); MIC [9]: 6.25 µg/mL (≈ 3.28 µM)

Question: What does the source list for CCCCCCCCCC(=O)N[C@@H](Cc1c[nH]c2ccccc12)C(=O)N[C@H](CC(N)=O)C(=O)N[C@@H](CCO)C(=O)N[C@@H]1C(=O)NCC(=O)N[C@@H](CCCNCc2ccc(S(=O)(=O)N3CCN(c4ccccc4)CC3)cc2)C(=O)N[C@@H](CC(=O)O)C(=O)N[C@H](C)C(=O)N[C@@H](CC(=O)O)C(=O)NCC(=O)N[C@H](CO)C(=O)N[C@@H]([C@H](C)CC(=O)O)C(=O)N[C@@H](CC(=O)c2ccccc2N)C(=O)O[C@@H]1C?
Answer: MIC [1]: 0.78 µg/mL (≈ 0.406 µM); MIC [2]: 0.78 µg/mL (≈ 0.406 µM); MIC [3]: 1.56 µg/mL (≈ 0.812 µM); MIC [4]: 6.25 µg/mL (≈ 3.25 µM); MIC [5]: 0.78 µg/mL (≈ 0.406 µM); MIC [6]: 0.39 µg/mL (≈ 0.203 µM); MIC [8]: 3.13 µg/mL (≈ 1.63 µM); MIC [9]: 12.5 µg/mL (≈ 6.51 µM)

Question: For CCCCCCCCCC(=O)N[C@@H](Cc1c[nH]c2ccccc12)C(=O)N[C@H](CC(N)=O)C(=O)N[C@@H](CCO)C(=O)N[C@@H]1C(=O)NCC(=O)N[C@@H](CCCNCc2ccc(/C=C/C(=O)N3CCN(c4ccc(Cl)c(Cl)c4)CC3)cc2)C(=O)N[C@@H](CC(=O)O)C(=O)N[C@H](C)C(=O)N[C@@H](CC(=O)O)C(=O)NCC(=O)N[C@H](CO)C(=O)N[C@@H]([C@H](C)CC(=O)O)C(=O)N[C@@H](CC(=O)c2ccccc2N)C(=O)O[C@@H]1C, which MIC [1] is on record?
Answer: The MIC was 1.56 µg/mL (≈ 0.788 µM).

Question: What about the MIC [2] of the same compound?
Answer: Its MIC is 0.78 µg/mL (≈ 0.394 µM).

Question: What about the MIC [3] of the same compound?
Answer: Its MIC is 1.56 µg/mL (≈ 0.788 µM).

Question: What about the MIC [4] of the same compound?
Answer: The MIC was 50 µg/mL (≈ 25.3 µM).

Question: And the MIC [5]?
Answer: The MIC was 12.5 µg/mL (≈ 6.31 µM).

Question: What about the MIC [6] of the same compound?
Answer: Its MIC is 0.78 µg/mL (≈ 0.394 µM).

Question: What about the MIC [8] of the same compound?
Answer: Its MIC is 12.5 µg/mL (≈ 6.31 µM).

Question: And the MIC [9]?
Answer: Its MIC is 50 µg/mL (≈ 25.3 µM).

Question: For CCCCCCCCCC(=O)N[C@@H](Cc1c[nH]c2ccccc12)C(=O)N[C@H](CC(N)=O)C(=O)N[C@@H](CCO)C(=O)N[C@@H]1C(=O)NCC(=O)N[C@@H](CCCNCc2ccc(S(=O)(=O)N3CCN(c4ncccn4)CC3)cc2)C(=O)N[C@@H](CC(=O)O)C(=O)N[C@H](C)C(=O)N[C@@H](CC(=O)O)C(=O)NCC(=O)N[C@H](CO)C(=O)N[C@@H]([C@H](C)CC(=O)O)C(=O)N[C@@H](CC(=O)c2ccccc2N)C(=O)O[C@@H]1C, which MIC [1] is on record?
Answer: The MIC was 3.13 µg/mL (≈ 1.63 µM).

Question: And the MIC [2]?
Answer: Its MIC is 0.39 µg/mL (≈ 0.203 µM).

Question: What about the MIC [3] of the same compound?
Answer: The MIC was 3.13 µg/mL (≈ 1.63 µM).

Question: What about the MIC [4] of the same compound?
Answer: Its MIC is 6.25 µg/mL (≈ 3.25 µM).

Question: And the MIC [5]?
Answer: The MIC was 1.56 µg/mL (≈ 0.811 µM).

Question: And the MIC [6]?
Answer: The MIC was 0.78 µg/mL (≈ 0.406 µM).

Question: And the MIC [8]?
Answer: Its MIC is 1.56 µg/mL (≈ 0.811 µM).

Question: What about the MIC [9] of the same compound?
Answer: The MIC was 12.5 µg/mL (≈ 6.5 µM).

Question: How did the MIC [1] turn out when CCCCCCCCCC(=O)N[C@@H](Cc1c[nH]c2ccccc12)C(=O)N[C@H](CC(N)=O)C(=O)N[C@@H](CCO)C(=O)N[C@@H]1C(=O)NCC(=O)N[C@@H](CCCNCc2ccc(F)cc2F)C(=O)N[C@@H](CC(=O)O)C(=O)N[C@H](C)C(=O)N[C@@H](CC(=O)O)C(=O)NCC(=O)N[C@H](CO)C(=O)N[C@@H]([C@H](C)CC(=O)O)C(=O)N[C@@H](CC(=O)c2ccccc2N)C(=O)O[C@@H]1C was run?
Answer: Its MIC is 6.25 µg/mL (≈ 3.61 µM).

Question: And the MIC [2]?
Answer: The MIC was 0.78 µg/mL (≈ 0.45 µM).

Question: What about the MIC [3] of the same compound?
Answer: The MIC was 6.25 µg/mL (≈ 3.61 µM).

Question: And the MIC [4]?
Answer: Its MIC is 12.5 µg/mL (≈ 7.21 µM).

Question: What about the MIC [5] of the same compound?
Answer: Its MIC is 0.78 µg/mL (≈ 0.45 µM).

Question: And the MIC [6]?
Answer: Its MIC is 1.56 µg/mL (≈ 0.9 µM).

Question: What about the MIC [8] of the same compound?
Answer: The MIC was 3.13 µg/mL (≈ 1.81 µM).

Question: What about the MIC [9] of the same compound?
Answer: Its MIC is 25 µg/mL (≈ 14.4 µM).

Question: Which results are given for CCCCCCCCCC(=O)N[C@@H](Cc1c[nH]c2ccccc12)C(=O)N[C@H](CC(N)=O)C(=O)N[C@@H](CCO)C(=O)N[C@@H]1C(=O)NCC(=O)N[C@@H](CCCNCc2nccs2)C(=O)N[C@@H](CC(=O)O)C(=O)N[C@H](C)C(=O)N[C@@H](CC(=O)O)C(=O)NCC(=O)N[C@H](CO)C(=O)N[C@@H]([C@H](C)CC(=O)O)C(=O)N[C@@H](CC(=O)c2ccccc2N)C(=O)O[C@@H]1C?
Answer: MIC [1]: 6.25 µg/mL (≈ 3.67 µM); MIC [2]: 0.78 µg/mL (≈ 0.458 µM); MIC [3]: 6.24 µg/mL (≈ 3.66 µM); MIC [4]: 12.5 µg/mL (≈ 7.34 µM); MIC [5]: 0.78 µg/mL (≈ 0.458 µM); MIC [6]: 0.78 µg/mL (≈ 0.458 µM); MIC [8]: 1.56 µg/mL (≈ 0.916 µM); MIC [9]: 6.25 µg/mL (≈ 3.67 µM)
